Here are results for six compounds from article PMC9736855, “Discovery of 3-Amino-1H-pyrazole-Based Kinase Inhibitors to Illuminate the Understudied PCTAIRE Family” (International Journal of Molecular Sciences, 2022).

Common to all, as to experiment: DSF
Type in all cases: binding

One assay deals with T1, CK2A2 (Homo sapiens, UniProt P19784).
T1 construct: purchased in-house DSF panel (SGC Frankfurt)

A further assay deals with T2, DMPK1 (Homo sapiens, UniProt Q09013).
T2 construct: purchased in-house DSF panel (SGC Frankfurt)
T2 sequence (Q09013 1-629): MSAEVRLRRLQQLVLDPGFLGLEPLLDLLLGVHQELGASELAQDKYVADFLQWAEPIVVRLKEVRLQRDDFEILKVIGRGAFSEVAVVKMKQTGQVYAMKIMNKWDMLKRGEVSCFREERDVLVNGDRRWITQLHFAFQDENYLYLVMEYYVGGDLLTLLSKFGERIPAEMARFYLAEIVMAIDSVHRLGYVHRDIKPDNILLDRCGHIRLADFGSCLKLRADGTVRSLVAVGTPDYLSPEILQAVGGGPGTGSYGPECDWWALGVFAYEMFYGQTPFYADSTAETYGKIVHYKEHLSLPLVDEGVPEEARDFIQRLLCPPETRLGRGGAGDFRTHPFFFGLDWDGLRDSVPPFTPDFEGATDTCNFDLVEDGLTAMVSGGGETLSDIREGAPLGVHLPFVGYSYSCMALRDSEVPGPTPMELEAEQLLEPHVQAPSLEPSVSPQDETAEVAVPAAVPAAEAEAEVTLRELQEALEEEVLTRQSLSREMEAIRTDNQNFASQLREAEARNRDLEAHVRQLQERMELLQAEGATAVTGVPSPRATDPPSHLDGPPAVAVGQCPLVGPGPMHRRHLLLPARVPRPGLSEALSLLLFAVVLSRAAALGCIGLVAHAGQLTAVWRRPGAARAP

In the next assay the target is T3, DYRK1A (Homo sapiens, UniProt Q13627).
T3 construct: purchased in-house DSF panel (SGC Frankfurt)

For another assay, the target named is T4, GSG2 (Homo sapiens, UniProt Q8TF76).
T4 construct: purchased in-house DSF panel (SGC Frankfurt)
T4 sequence (Q8TF76 465-798): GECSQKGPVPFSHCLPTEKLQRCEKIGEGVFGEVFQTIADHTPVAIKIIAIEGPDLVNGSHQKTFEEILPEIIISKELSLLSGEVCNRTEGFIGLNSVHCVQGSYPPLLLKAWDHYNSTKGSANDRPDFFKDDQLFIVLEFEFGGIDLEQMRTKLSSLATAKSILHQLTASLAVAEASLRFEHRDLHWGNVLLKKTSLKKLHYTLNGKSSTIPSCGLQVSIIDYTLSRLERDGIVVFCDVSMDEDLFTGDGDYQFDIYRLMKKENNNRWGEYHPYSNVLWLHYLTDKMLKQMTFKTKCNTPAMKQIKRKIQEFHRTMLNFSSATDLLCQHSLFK

The target of the next assay is T5, MAP2K1 (Homo sapiens, UniProt Q02750).
T5 construct: purchased in-house DSF panel (SGC Frankfurt)
T5 sequence (Q02750 68-361): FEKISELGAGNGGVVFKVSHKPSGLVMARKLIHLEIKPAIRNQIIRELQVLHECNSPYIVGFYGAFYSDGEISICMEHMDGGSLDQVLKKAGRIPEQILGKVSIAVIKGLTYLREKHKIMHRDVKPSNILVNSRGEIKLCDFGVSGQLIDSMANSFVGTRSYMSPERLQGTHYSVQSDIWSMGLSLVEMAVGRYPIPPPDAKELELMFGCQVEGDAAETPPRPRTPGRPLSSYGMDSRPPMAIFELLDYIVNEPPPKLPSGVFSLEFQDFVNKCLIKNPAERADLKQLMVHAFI

The target in another assay is T6, MAP2K6 (Homo sapiens, UniProt P52564).
T6 construct: purchased in-house DSF panel (SGC Frankfurt)
T6 sequence (P52564 53-314): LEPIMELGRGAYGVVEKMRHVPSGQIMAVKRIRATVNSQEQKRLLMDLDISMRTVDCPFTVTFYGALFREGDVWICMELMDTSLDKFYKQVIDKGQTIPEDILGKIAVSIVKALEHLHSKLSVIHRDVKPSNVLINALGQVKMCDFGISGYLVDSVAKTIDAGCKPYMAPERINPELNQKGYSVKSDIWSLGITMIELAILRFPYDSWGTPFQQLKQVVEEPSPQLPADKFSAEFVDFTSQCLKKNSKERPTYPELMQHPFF

For another assay, the target named is T7, MAPK10 (Homo sapiens, UniProt P53779).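 Note: compound tested at 10 µM with 2 µM protein.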
T7 construct: purchased in-house DSF panel (SGC Frankfurt)
T7 sequence (P53779 whole entry): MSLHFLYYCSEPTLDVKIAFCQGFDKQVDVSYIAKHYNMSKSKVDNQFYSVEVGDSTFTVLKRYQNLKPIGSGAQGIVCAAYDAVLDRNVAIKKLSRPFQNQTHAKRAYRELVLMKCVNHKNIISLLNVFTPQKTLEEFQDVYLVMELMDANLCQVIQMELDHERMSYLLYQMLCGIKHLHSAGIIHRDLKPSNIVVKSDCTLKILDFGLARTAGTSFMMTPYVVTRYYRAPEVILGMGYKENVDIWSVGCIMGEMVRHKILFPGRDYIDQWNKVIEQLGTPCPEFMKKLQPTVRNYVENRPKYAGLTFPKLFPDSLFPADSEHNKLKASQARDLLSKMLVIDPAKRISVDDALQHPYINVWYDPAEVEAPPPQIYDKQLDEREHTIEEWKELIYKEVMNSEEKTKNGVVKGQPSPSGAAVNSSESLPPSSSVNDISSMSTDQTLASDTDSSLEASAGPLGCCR

For the next assay, the target named is T8, TTK (Homo sapiens, UniProt P33981).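 Note: compound tested at 10 µM with 2 µM protein.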
T8 construct: purchased in-house DSF panel (SGC Frankfurt)
T8 sequence (P33981 519-808): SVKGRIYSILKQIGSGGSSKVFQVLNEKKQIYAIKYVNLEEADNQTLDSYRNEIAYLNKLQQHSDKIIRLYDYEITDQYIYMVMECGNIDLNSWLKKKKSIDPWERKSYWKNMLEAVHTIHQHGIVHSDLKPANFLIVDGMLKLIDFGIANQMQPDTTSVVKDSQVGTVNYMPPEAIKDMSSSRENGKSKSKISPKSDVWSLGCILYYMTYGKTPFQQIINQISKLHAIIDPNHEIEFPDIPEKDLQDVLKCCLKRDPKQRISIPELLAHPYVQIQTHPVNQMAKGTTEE

Another assay addresses T9, NEK7 (Homo sapiens, UniProt Q8TDX7).
T9 construct: purchased in-house DSF panel (SGC Frankfurt)

The target in a further assay is T10, EPHA4 (Homo sapiens, UniProt P54764).
T10 construct: purchased in-house DSF panel (SGC Frankfurt)
T10 sequence (P54764 606-890): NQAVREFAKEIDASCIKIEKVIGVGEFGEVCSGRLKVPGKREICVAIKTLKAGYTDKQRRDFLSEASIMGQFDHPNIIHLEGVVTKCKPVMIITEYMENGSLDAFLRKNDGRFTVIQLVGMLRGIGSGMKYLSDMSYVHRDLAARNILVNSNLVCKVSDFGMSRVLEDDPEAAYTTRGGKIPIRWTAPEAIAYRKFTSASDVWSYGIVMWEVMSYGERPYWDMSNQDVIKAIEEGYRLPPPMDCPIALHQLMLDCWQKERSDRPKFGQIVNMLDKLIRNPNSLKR
How it is done:
(§1) Measurements were performed in duplicates.

Another assay has as its target T11, HIPK2 (Homo sapiens, UniProt Q9H2X6).
T11 construct: purchased in-house DSF panel (SGC Frankfurt)
The method, then: as §1

In the next assay the target is T12, NEK2 (Homo sapiens, UniProt P51955).
T12 construct: purchased in-house DSF panel (SGC Frankfurt)
T12 sequence (P51955 1-271): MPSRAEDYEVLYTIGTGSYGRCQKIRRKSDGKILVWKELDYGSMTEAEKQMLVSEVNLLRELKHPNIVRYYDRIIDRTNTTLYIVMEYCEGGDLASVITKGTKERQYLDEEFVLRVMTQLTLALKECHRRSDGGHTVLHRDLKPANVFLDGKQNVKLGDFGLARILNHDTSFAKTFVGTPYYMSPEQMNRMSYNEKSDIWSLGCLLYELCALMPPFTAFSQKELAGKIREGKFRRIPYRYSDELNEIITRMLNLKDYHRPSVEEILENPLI
How it is done:
as §1
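Throughout, for ΔTm CK2A2: compound tested at 10 µM with 2 µM protein.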

T1 sequence (P19784 whole entry): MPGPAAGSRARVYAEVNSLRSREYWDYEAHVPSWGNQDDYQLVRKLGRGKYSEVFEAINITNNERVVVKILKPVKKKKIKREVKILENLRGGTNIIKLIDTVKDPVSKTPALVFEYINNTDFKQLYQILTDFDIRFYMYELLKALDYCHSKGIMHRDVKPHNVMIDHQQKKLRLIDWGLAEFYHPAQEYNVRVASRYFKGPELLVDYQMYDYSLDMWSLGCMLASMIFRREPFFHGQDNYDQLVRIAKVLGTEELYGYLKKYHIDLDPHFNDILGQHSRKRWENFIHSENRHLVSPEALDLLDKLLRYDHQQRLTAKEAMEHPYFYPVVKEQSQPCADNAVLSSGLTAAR
T11 sequence (Q9H2X6 199-527): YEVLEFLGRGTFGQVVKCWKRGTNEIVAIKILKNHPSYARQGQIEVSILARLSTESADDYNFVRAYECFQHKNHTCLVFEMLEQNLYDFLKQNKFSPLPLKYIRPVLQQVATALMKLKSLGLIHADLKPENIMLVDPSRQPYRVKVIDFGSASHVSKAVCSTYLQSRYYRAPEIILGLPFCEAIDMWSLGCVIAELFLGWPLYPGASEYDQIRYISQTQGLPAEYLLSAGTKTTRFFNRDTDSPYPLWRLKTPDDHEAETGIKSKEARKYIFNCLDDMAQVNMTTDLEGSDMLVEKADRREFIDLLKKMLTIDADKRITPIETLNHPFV
T9 sequence (Q8TDX7 whole entry): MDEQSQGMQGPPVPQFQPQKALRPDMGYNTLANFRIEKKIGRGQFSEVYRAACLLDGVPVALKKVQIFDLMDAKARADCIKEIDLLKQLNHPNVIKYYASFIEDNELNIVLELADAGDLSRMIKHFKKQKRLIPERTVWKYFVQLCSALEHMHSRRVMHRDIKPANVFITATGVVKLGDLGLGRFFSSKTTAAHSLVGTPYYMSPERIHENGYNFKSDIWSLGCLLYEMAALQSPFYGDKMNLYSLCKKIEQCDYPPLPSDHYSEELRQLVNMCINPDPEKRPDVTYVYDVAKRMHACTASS
Description for CK2A2: (§2) Recombinant protein kinase domains with a concentration of 2 μM were mixed with a 10 μM compound solution in DMSO, 20 mM HEPES, pH 7.5, and 500 mM NaCl. SYPRO Orange (5000×, Invitrogen) was added as a fluorescence probe (1 µl per mL). Subsequently, temperature-dependent protein unfolding profiles were measured, using the QuantStudio™ 5 realtime PCR machine (Thermo Fisher, Waltham, MA, USA). […] The temperature was raised with a step rate of 3 °C per minute. Data points were analyzed with the internal software (Thermal Shift SoftwareTM Version 1.4, Thermo Fisher) using the Boltzmann equation to determine the inflection point of the transition curve [56]. Differences in melting temperature are given as ΔTm values in °C. Measurements were performed in duplicates.
Description for DMPK1: as §2
Description for DYRK1A: as §2
Description for GSG2: as §2
Description for MAP2K1: as §2
Description for MAP2K6: as §2
Description for MAPK10: as §2
Description for NEK7: as §2
Description for TTK: as §2

Regarding `N#CCc1ccc(Nc2nccc(Nc3cc(C4CC4)[nH]n3)n2)cc1` [compound 1, reference compound], the “ΔTm CK2A2” value at CK2A2 was 8.5 °C. Also, the “ΔTm DMPK1” value on DMPK1 is 3.2 °C. Moreover, the “ΔTm DYRK1A” value on DYRK1A worked out at 8.2 °C. In addition, the “ΔTm GSG2” value at GSG2 is 2.9 °C. Further, the “ΔTm MAP2K1” value on MAP2K1 was 1.4 °C. In addition, the “ΔTm MAP2K6” value on MAP2K6 worked out at 10.4 °C. The “ΔTm MAPK10” value on MAPK10 came out at 7.2 °C. Moreover, the “ΔTm TTK” value on TTK came to 8.8 °C.

With `CC(C)(C)OC(=O)Nc1ccc(CNc2nccc(Nc3cc(C(=O)OC(C)(C)C)[nH]n3)n2)cc1` [43d, tert-butyl 3-((2-((4-((tert-butoxycarbonyl)amino)benzyl)amino)pyrimidin-4-yl)amino)-1H-pyrazole-5-carboxylate], the “ΔTm CK2A2” value on CK2A2 came to 1.1 °C. On DMPK1, the “ΔTm DMPK1” value is -0.1 °C. Also, the “ΔTm DYRK1A” value at DYRK1A was found to be 1.8 °C. Moreover, the “ΔTm GSG2” value on GSG2 was -0.3 °C. Further, the “ΔTm MAP2K6” value on MAP2K6 was found to be 3.0 °C. Also, the “ΔTm MAPK10” value at MAPK10 was -1.6 °C. In addition, the “ΔTm NEK7” value at NEK7 is -1.0 °C. For the same compound, the “ΔTm TTK” value at TTK is -0.2 °C. In addition, the “ΔTm EPHA4” value at EPHA4 stood at 0.0 °C. Besides, the “ΔTm HIPK2” value on HIPK2 is 0.1 °C. Further, at NEK2, the “ΔTm NEK2” value amounted to 2.0 °C.

Take `CC(C)OC(=O)c1cc(Nc2ccnc(NCc3ccc(NC(=O)OC(C)(C)C)cc3)n2)n[nH]1` [42d, isopropyl 3-((2-((4-((tert-butoxycarbonyl)amino)benzyl)amino)pyrimidin-4-yl)amino)-1H-pyrazole-5-carboxylate]: at CK2A2, the “ΔTm CK2A2” value is 1.1 °C. Moreover, the “ΔTm DMPK1” value on DMPK1 was -0.1 °C. In addition, the “ΔTm DYRK1A” value at DYRK1A came out at 0.0 °C. Further, the “ΔTm GSG2” value on GSG2 turned out to be 0.5 °C. Further, the “ΔTm MAP2K6” value on MAP2K6 was found to be 5.0 °C. Also, the “ΔTm MAPK10” value at MAPK10 was -3.0 °C. At NEK7, the “ΔTm NEK7” value is -1.7 °C. Also, the “ΔTm TTK” value at TTK is -0.1 °C. For the same compound, on EPHA4, the “ΔTm EPHA4” value is -0.1 °C. Besides, the “ΔTm HIPK2” value on HIPK2 was -0.2 °C. Moreover, the “ΔTm NEK2” value at NEK2 was -1.4 °C.

For the compound `COC(=O)c1cc(Nc2ccnc(NCCOCCNC(=O)OC(C)(C)C)n2)[nH]n1` [21d, methyl 5-((2-((2-(2-((tert-butoxycarbonyl)amino)ethoxy)ethyl)amino)pyrimidin-4-yl)amino)-1H-pyrazole-3-carboxylate], the “ΔTm CK2A2” value at CK2A2 came to 1.8 °C. For the same compound, on DMPK1, the “ΔTm DMPK1” value was found to be 0.5 °C. Also, on DYRK1A, the “ΔTm DYRK1A” value stood at 1.2 °C. For the same compound, the “ΔTm GSG2” value on GSG2 is 0.2 °C. Further, at MAP2K1, the “ΔTm MAP2K1” value came to 0.7 °C. Further, the “ΔTm MAP2K6” value at MAP2K6 came out at 1.4 °C. Also, the “ΔTm MAPK10” value at MAPK10 was determined as 2.9 °C. Moreover, at TTK, the “ΔTm TTK” value is 1.6 °C.

Turning to `CN[C@@H]1C[C@H]2O[C@@](C)([C@@H]1OC)n1c3ccccc3c3c4c(c5c6ccccc6n2c5c31)C(=O)NC4` [staurosporine, reference compound], the “ΔTm EPHA4” value on EPHA4 is 6.2 °C. The “ΔTm HIPK2” value at HIPK2 stood at 4.4 °C. The “ΔTm NEK2” value on NEK2 is 3.3 °C.

Turning to `COC(=O)c1cc(Nc2ccnc(NCc3ccc(NC(=O)OC(C)(C)C)cc3)n2)[nH]n1` [21i, methyl 5-((2-((4-((tert-butoxycarbonyl)amino)benzyl)amino)pyrimidin-4-yl)amino)-1H-pyrazole-3-carboxylate], at CK2A2, the “ΔTm CK2A2” value was 1.3 °C. Moreover, at DMPK1, the “ΔTm DMPK1” value was 0.1 °C. On DYRK1A, the “ΔTm DYRK1A” value worked out at 3.4 °C. For the same compound, the “ΔTm GSG2” value on GSG2 was -0.2 °C. Besides, at MAP2K1, the “ΔTm MAP2K1” value was -0.5 °C. Also, the “ΔTm MAP2K6” value at MAP2K6 was 5.4 °C. The “ΔTm MAPK10” value on MAPK10 is 1.8 °C. At TTK, the “ΔTm TTK” value stood at 0.0 °C.
